The values that follow come from PMC11173765 (Molecules, 2024).

“And” between values parts separate entries of the source, which are not always exact repeats. Equal entries are not always repeated.

T1 sequence (Q9R0C9 whole entry): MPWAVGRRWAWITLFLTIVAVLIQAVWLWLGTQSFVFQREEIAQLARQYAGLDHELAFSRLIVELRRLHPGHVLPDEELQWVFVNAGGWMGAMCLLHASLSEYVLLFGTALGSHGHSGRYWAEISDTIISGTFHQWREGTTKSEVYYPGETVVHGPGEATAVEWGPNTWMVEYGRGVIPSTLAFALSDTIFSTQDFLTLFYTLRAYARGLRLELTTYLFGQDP

One data set has as its target T1, S1R (Rattus norvegicus, UniProt Q9R0C9).
T1 construct: liver homogenates (250 μg/sample) from male Sprague Dawley rats; from tissue; host or cells: liver homogenate of male Sprague Dawley rats
As to the kind of experiment: S1R radioligand binding assay ([3H]-pentazocine, rat liver homogenates).
Conditions: not given
The protocol:
(§1) The S1R and S2R receptor affinities of the test compounds were evaluated in competition tests by radiometric assays.
(§2) Liver homogenates were prepared from Sprague Dawley rats (ENVIGO RMS S.R.L., Udine, Italy) for both S1R and S2R receptor binding assays. […] An Ultima Gold MV Scintillation cocktail was sourced from PerkinElmer (Milan, Italy). Other materials were obtained from Merck Life Science S.r.l. (Milan, Italy). For each compound, a10 mM DMSO stock solution was obtained. From these, diluted test concentrations ranging from 10^−5 M to 10^−11 M wereprepared using the respective assay buffer. Both assays involve the use of a tris buffer (50 mM, pH 8) and liver homogenates (250 μg/sample) from male Sprague Dawley rats. […] The final volume was 0.5 mL [54]. A millipore filter apparatus was employed to separate bound and free radioligands via filtration under conditions of reduced pressure through Whatman GF 6 glass fiber filters. Each filter paper was washed three times with 2 mL of ice-cold tris buffer (50 mM for S1R, 10 mM for S2R; pH 8.0), dried at room temperature, and incubated overnight with 2 mL of Ultima Gold MV Scintillation cocktail in pony vials. Bound radioactivity was determined using a liquid scintillation counter Beckman LS 6500 (Beckman Coulter Diagnostic, Brea, CA, USA. […]
The Ki is the dissociation constant of the complex between target and ligand, obtained from inhibition or displacement. For the compound `O=C(CCCN1CCC2(CC1)OCc1ccccc12)c1ccc(F)cc1` [4g, 1-(4-Fluorophenyl)-4-(3H-spiro[isobenzofuran-1,4′-piperidin]-1′-yl)butan-1-one], the Ki is 6.3 ± 1.4 nM.

Still in this data set, the particulars now being: [3H]-pentazocine 2 nM, rat liver homogenates; mean ± SEM; read-out: Ki S1R.
Take `O=C(CCCN1CCCN(Cc2ccccc2)CC1)c1ccc(F)cc1` [4a, 4-(4-Benzyl-1,4-diazepan-1-yl)-1-(4-fluorophenyl)butan-1-one]: the Ki stood at 21.6 ± 3.44 nM.
As for `O=C(CCCN1CCc2ccccc2C1)c1ccc(F)cc1` [4b, 4-(3,4-Dihydroisoquinolin-2(1H)-yl)-1-(4-fluorophenyl)butan-1-one], the Ki was 44.5 ± 7.39 nM.
Regarding `COc1ccc(CN(C)CCCC(=O)c2ccc(F)cc2)cc1OC` [4c, 4-((3,4-Dimethoxybenzyl)(methyl)-amino)-1-(4-fluorophenyl)butan-1-one], the Ki is 301 ± 74.7 nM.
Regarding `O=C(CCCN1CCN(C2CCCCC2)CC1)c1ccc(F)cc1` [4d, 4-(4-Cyclohexylpiperazin-1-yl)-1-(4-fluorophenyl)butan-1-one], the Ki came to 18.8 ± 2.91 nM.

The data set is the same for the next values; noted with them: in words, from S1R and S2R binding affinities.
With `O=C(CCCN1CCCN(Cc2ccccc2)CC1)c1ccc(F)cc1` [4a, 4-(4-Benzyl-1,4-diazepan-1-yl)-1-(4-fluorophenyl)butan-1-one], the SR subtype preference result is reported as “preference for the S1R subtype”.
For the compound `O=C(CCCN1CCc2ccccc2C1)c1ccc(F)cc1` [4b, 4-(3,4-Dihydroisoquinolin-2(1H)-yl)-1-(4-fluorophenyl)butan-1-one], the SR subtype preference entry is “preference for the S1R subtype”.
As to `COc1ccc(CN(C)CCCC(=O)c2ccc(F)cc2)cc1OC` [4c, 4-((3,4-Dimethoxybenzyl)(methyl)-amino)-1-(4-fluorophenyl)butan-1-one], the SR subtype preference result is listed as “preference for S2R”.
Regarding `O=C(CCCN1CCN(C2CCCCC2)CC1)c1ccc(F)cc1` [4d, 4-(4-Cyclohexylpiperazin-1-yl)-1-(4-fluorophenyl)butan-1-one], the SR subtype preference result is listed as “dual SR affinity”.
`O=C(CCCN1CCC2(CC1)OCc1ccccc12)c1ccc(F)cc1` [4g, 1-(4-Fluorophenyl)-4-(3H-spiro[isobenzofuran-1,4′-piperidin]-1′-yl)butan-1-one]: the SR subtype preference result was “dual SR affinity”.

Staying with this data set, now noted: selectivity ratio Ki S2R / Ki S1R.
Consider `O=C(CCCN1CCCN(Cc2ccccc2)CC1)c1ccc(F)cc1` [4a, 4-(4-Benzyl-1,4-diazepan-1-yl)-1-(4-fluorophenyl)butan-1-one], for which the S2R/S1R was 10.
Consider `O=C(CCCN1CCc2ccccc2C1)c1ccc(F)cc1` [4b, 4-(3,4-Dihydroisoquinolin-2(1H)-yl)-1-(4-fluorophenyl)butan-1-one], for which the S2R/S1R was 2.8.
For the compound `COc1ccc(CN(C)CCCC(=O)c2ccc(F)cc2)cc1OC` [4c, 4-((3,4-Dimethoxybenzyl)(methyl)-amino)-1-(4-fluorophenyl)butan-1-one], the S2R/S1R stood at 0.5.
For `O=C(CCCN1CCN(C2CCCCC2)CC1)c1ccc(F)cc1` [4d, 4-(4-Cyclohexylpiperazin-1-yl)-1-(4-fluorophenyl)butan-1-one], the S2R/S1R came out at 0.7.
Regarding `O=C(CCCN1CCC2(CC1)OCc1ccccc12)c1ccc(F)cc1` [4g, 1-(4-Fluorophenyl)-4-(3H-spiro[isobenzofuran-1,4′-piperidin]-1′-yl)butan-1-one], the S2R/S1R was determined as 1.46.

Another data set has as its target T2, S2R (Rattus norvegicus, UniProt Q5U3Y7).
T2 construct: liver homogenates (250 μg/sample) from male Sprague Dawley rats; from tissue; host or cells: liver homogenate of male Sprague Dawley rats
T2 sequence (Q5U3Y7 1-176): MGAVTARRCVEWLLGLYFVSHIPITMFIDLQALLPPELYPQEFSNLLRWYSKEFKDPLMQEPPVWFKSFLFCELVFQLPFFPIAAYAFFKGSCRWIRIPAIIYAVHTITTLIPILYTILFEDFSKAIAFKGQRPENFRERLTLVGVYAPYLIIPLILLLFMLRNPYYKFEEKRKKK
Put plainly: S2R radioligand binding assay ([3H]-DTG with (+)-pentazocine mask, rat liver homogenates). Particulars: Ki S2R, [3H]-DTG 2 nM, (+)-pentazocine 5 μM mask, rat liver homogenates; mean ± SEM. The protocol:
as §1, §2
For the compound `O=C(CCCN1CCC2(CC1)OCc1ccccc12)c1ccc(F)cc1` [4g, 1-(4-Fluorophenyl)-4-(3H-spiro[isobenzofuran-1,4′-piperidin]-1′-yl)butan-1-one], the Ki was 9.2 nM and 9.23 nM.

The data set is the same for the next values; noted with them: [3H]-DTG 2 nM, (+)-pentazocine 5 μM mask, rat liver homogenates; mean ± SEM; read-out: Ki S2R.
As to `O=C(CCCN1CCCN(Cc2ccccc2)CC1)c1ccc(F)cc1` [4a, 4-(4-Benzyl-1,4-diazepan-1-yl)-1-(4-fluorophenyl)butan-1-one], the Ki stood at 210 ± 21.4 nM.
For the compound `O=C(CCCN1CCc2ccccc2C1)c1ccc(F)cc1` [4b, 4-(3,4-Dihydroisoquinolin-2(1H)-yl)-1-(4-fluorophenyl)butan-1-one], the Ki was 124 ± 16.3 nM.
Same read-out and setting: then `COc1ccc(CN(C)CCCC(=O)c2ccc(F)cc2)cc1OC` [4c, 4-((3,4-Dimethoxybenzyl)(methyl)-amino)-1-(4-fluorophenyl)butan-1-one], with 148 ± 10.3 nM; and `O=C(CCCN1CCN(C2CCCCC2)CC1)c1ccc(F)cc1` [4d, 4-(4-Cyclohexylpiperazin-1-yl)-1-(4-fluorophenyl)butan-1-one], with 13.2 ± 2.78 nM.

The same data set, now with this note: selectivity ratio Ki S1R / Ki S2R.
Consider `O=C(CCCN1CCc2ccccc2C1)c1ccc(F)cc1` [4b, 4-(3,4-Dihydroisoquinolin-2(1H)-yl)-1-(4-fluorophenyl)butan-1-one], for which the S1R/S2R was found to be 0.35.
For the compound `COc1ccc(CN(C)CCCC(=O)c2ccc(F)cc2)cc1OC` [4c, 4-((3,4-Dimethoxybenzyl)(methyl)-amino)-1-(4-fluorophenyl)butan-1-one], the S1R/S2R is reported as 2.0.
Take `O=C(CCCN1CCN(C2CCCCC2)CC1)c1ccc(F)cc1` [4d, 4-(4-Cyclohexylpiperazin-1-yl)-1-(4-fluorophenyl)butan-1-one]: the S1R/S2R was determined as 1.4.
Consider `O=C(CCCN1CCC2(CC1)OCc1ccccc12)c1ccc(F)cc1` [4g, 1-(4-Fluorophenyl)-4-(3H-spiro[isobenzofuran-1,4′-piperidin]-1′-yl)butan-1-one], for which the S1R/S2R was 0.7.

A further data set has as its system SH-SY5Y. Put plainly: Cytotoxicity, resazurin viability assay in SH-SY5Y cells. In kind it is cell-based. Particulars: Homo sapiens, 48 hrs treatment, mean ± SEM. The method, then: (§3) Cytotoxic potency was measured using a resazurin assay (see Supplementary Materials). Cells were treated with increasing concentrations of each compound for 48 hours before the cell viability was assessed (Supplementary Materials).
(§4) Dulbecco’s modified Eagle medium (DMEM; Gibco, Life Technologies, Grand Island, NY, USA), supplemented with 10% (v/v) of fetal bovine serum (FBS) and Antibiotic Antimycotic Solution (100 U penicillin, 100 μg/mL streptomycin and 0.25 μg/mL amphotericin B; Sigma-Aldrich, St. Louis, MO, USA), was used to culture the human cell lines SH-SY5Y [55] (neuroblastoma, ATCC, CRL-2266) and HUH-7 [56] (hepatocarcinoma, Japanese Cancer Research Resources Bank, National Institutes of Biomedical Innovation, Health and Nutrition, NIBIOHN, JCRB0403).
(§5) Cell viability was evaluated using resazurin (SERVA Electrophoresis GmbH, Heidelberg, Germany) as previously described.
(§6) Briefly, a resazurin stock solution (440 μM, 10× in phosphate-buffered saline) was diluted in a culture medium to prepare a 44 μM working solution. Cells (5 × 10^3) were seeded in 96-well plates, incubated with 100µl of resazurin working solution, and fluorescence was measured after 1, 2, and 3 hrs. The background fluorescence of killed cells was subtracted, and viability was calculated relative to control cells treated with DMSO solvent (1%). The fluorescence was measured using an Envision 2104 Multi-label Microplate Reader (Perkin Elmer, Boston, MA, USA) and by setting the excitation wavelength at λ = 530 nm and emission wavelength at λ = 590 nm. Measurements were performed at a time of 0 and after 1 hour of incubation. Cytotoxicity was calculated as 100% minus the percentage of viability.
(§7) Statistical analysis was carried out with GraphPad Prism® 6.0 software. An unpaired t-test was used to compare treated and control cells, with p < 0.05 considered statistically significant. The half-maximal inhibitory concentration (IC50) values for cytotoxicity were determined by analyzing dose-response curves using GraphPad Prism software.
(Resazurin is reduced to fluorescent resorufin, in cell work by metabolically active cells.)
What is called IC50 is the concentration that inhibits the measured activity by half. Low values mean higher potency, high ones lower potency. Compound `O=C(CCCN1CCC2(CC1)OCc1ccccc12)c1ccc(F)cc1` [4g, 1-(4-Fluorophenyl)-4-(3H-spiro[isobenzofuran-1,4′-piperidin]-1′-yl)butan-1-one] displayed an IC50 of 57000 ± 6000 nM.

The subject of another data set is HUH-7. Put plainly: Cytotoxicity, resazurin viability assay in HUH-7 cells. Type of data set: cell-based. Particulars: Homo sapiens, 48 hrs treatment, mean ± SEM. The protocol: as §3, §4, §5, §6, §7
In the case of `O=C(CCCN1CCN(C2CCCCC2)CC1)c1ccc(F)cc1` [4d, 4-(4-Cyclohexylpiperazin-1-yl)-1-(4-fluorophenyl)butan-1-one], the IC50 came to 163000 ± 18000 nM.
`O=C(CCCN1CCC2(CC1)OCc1ccccc12)c1ccc(F)cc1` [4g, 1-(4-Fluorophenyl)-4-(3H-spiro[isobenzofuran-1,4′-piperidin]-1′-yl)butan-1-one] registered an IC50 of 16000 ± 2000 nM. Compared with the last compound, the IC50 is about 10-fold lower.

Tested on in another data set: not given
Experiment: not given
Conditions: not given
As usually defined, the melting point is the temperature of the solid-liquid transition. Regarding `O=C(CCCN1CCc2ccccc2C1)c1ccc(F)cc1` [4b, 4-(3,4-Dihydroisoquinolin-2(1H)-yl)-1-(4-fluorophenyl)butan-1-one], the melting point lay in the range of 45 to 47 °C.
Still for that read-out and setting: then `O=C(CCCN1CCN(C2CCCCC2)CC1)c1ccc(F)cc1` [4d, 4-(4-Cyclohexylpiperazin-1-yl)-1-(4-fluorophenyl)butan-1-one], with 198 to 200 °C; and `O=C(CCCN1CCC2(CC1)OCc1ccccc12)c1ccc(F)cc1` [4g, 1-(4-Fluorophenyl)-4-(3H-spiro[isobenzofuran-1,4′-piperidin]-1′-yl)butan-1-one], with 88 to 90 °C.
